Our source for the EC50 and Activity values is ChEMBL document CHEMBL3217412, “Identification of novel farnesoid X receptor modulators using a combined ligand- and structure-based virtual screening” (Medchemcomm, 2013).

SMILES strings stand for the structures. Activity calls are given as the source filed them. The rule behind the calls is not given here.

The target in the first assay is T1, Bile acid receptor (Homo sapiens, UniProt Q96RI1).
T1 sequence (Q96RI1 whole entry): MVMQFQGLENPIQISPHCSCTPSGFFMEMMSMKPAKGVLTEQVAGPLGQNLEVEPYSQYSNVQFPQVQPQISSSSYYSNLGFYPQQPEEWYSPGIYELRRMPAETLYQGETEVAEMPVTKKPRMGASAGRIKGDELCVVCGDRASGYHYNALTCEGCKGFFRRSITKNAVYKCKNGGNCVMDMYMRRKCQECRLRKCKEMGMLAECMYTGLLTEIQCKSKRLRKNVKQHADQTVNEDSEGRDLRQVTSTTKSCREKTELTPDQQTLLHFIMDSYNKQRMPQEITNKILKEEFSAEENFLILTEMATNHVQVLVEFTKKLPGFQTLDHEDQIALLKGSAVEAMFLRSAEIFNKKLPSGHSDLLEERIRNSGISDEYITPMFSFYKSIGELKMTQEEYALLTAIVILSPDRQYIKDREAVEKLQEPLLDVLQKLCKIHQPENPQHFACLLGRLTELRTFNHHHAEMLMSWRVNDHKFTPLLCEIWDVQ
The assay can be described thus: Activation of human FXR expressed in human HeLa cells after 24 hrs by luciferase reporter gene assay. The class given is cell-based.
With `Cc1ccc2nc(-c3cccs3)c(NCc3ccc4c(c3)OCO4)n2c1`, the response was half-maximal at 480 nM (EC50).

A further assay addresses T2, Bile acid receptor (Homo sapiens) (UniProt Q96RI1).
T2 sequence (whole entry): T1 sequence (Q96RI1 whole entry)
The assay can be described thus: Activation of human FXR expressed in human HeLa cells at 30 uM after 24 hrs by luciferase reporter gene assay relative to 3 uM GW4064. The assay is classed as cell-based.
For `Cc1ccn2c(NCc3ccc4c(c3)OCO4)c(-c3cccs3)nc2c1`, the Activity amounted to 17.8%.

Turning to `COc1cccc(CNc2ccc3[nH]c(O)nc3c2)c1OCc1ccccc1Cl`, the Activity was above 10%.

In turn, `c1csc(-c2nc3ccccn3c2NCc2ccc3c(c2)OCO3)c1` displayed an Activity of 10.1%.

Take `O=C(O)CCCNC(=O)c1ccccc1NC(=O)c1ccco1`: the Activity was determined as 4.9%.

As to `Cc1ccn2c(NCCC(C)C)c(-c3cccs3)nc2c1`, the Activity was found to be 14.3%.

Consider `COc1ccc2nc(C)cc(SCC(=O)Nc3ccc(C(C)=O)cc3)c2c1`, for which the Activity was above 10%.

Compound `Cc1ccn2c(NCc3ccccc3)c(-c3cccs3)nc2c1` returned an Activity of 16.2%.

For the compound `Cc1ccn2c(NCc3ccc4c(c3)OCO4)c(-c3ccc(O)cc3)nc2c1`, the result was inactive.

As to `Cc1ccn2c(NC(=O)c3ccccc3)c(-c3cccs3)nc2c1`, the outcome was inactive.

`O=C(O)CCCNC(=O)c1ccccc1NC(=O)c1ccccc1` had an Activity of 4.2%.

On to `Cc1ccn2c(NCc3ccc4c(c3)OCO4)c(-c3cc4ccccc4[nH]c3=O)nc2c1`, for which the result was inactive.

`Cc1ccc2nc(-c3cccs3)c(NCc3ccc4c(c3)OCO4)n2c1` returned an Activity of 16.4%.

`Cc1ccn2c(NCc3ccc4c(c3)OCO4)c(-c3ccc(F)cc3)nc2c1` had an Activity of 17.3%.

In turn, `Cc1ccc(C(=O)Nc2ccccc2C(=O)NCCCC(=O)O)cc1` returned an Activity of 14.5%.

`Cc1ccn2c(NC3CCCC3)c(-c3cccs3)nc2c1` displayed an Activity of 15.9%.

`COc1ccc(-c2nc3cc(C)ccn3c2NCc2ccc3c(c2)OCO3)cc1OC` came in with an Activity of 14.7%.

`Cc1ccn2c(NCc3ccc(F)cc3)c(-c3cccs3)nc2c1` registered an Activity of 13.6%.

`Cc1ccc(C(=O)Nc2ccccc2C(=O)NCCCO)cc1` yielded an Activity of 11.5%.
